Results reported in patent US7163799B2, “Neuromedin U receptor NMUR2 and nucleotides encoding it” (Merck & Co., Inc., priority 2000, dated 2007).
Each block holds one compound with its values, some of them ahead of it. Where no end group is shown, it is not given here.

How the values were obtained:
Type in all cases: in vivo, rat
[1] = test system: rats; experiment: Conditioned taste aversion (CTA) assay in rats; settings: for saccharin intake relative to total intake (taste aversion): 24 hours post-dosing
Protocol: In the CTA study, rats were conditioned to two hour daily access to water, with access to water from two bottles for two hours each day for three days. On the fourth day, rats were given 0.15% saccharin for the two hour period instead of water and saccharin consumption measured. Rats were injected NMU-23 (0, 3, or 10 μg, ICV). LiCl was used as a positive control (0.15 M; 2 ml/kg, i.p.). On the fifth day, rats were given saccharin alone for the first hour, then water was added for the remaining 23 hours. Fluid consumption was measured at 1, 2, and 24 hours post injection. Aversion was assessed as a function of drinking preferences.

[2] = test system: rats; experiment: Sodium (salt) appetite aversion assay in rats; settings: sodium-depleted rats
Protocol: In the salt appetite assay, rats were given 0.5 M NaCl salt water to drink for three days along with food and regular water. After three days, two injections of furosemide (5 mg /0.2 ml, s.c.) were given at one hour apart to sodium-deplete the rats. Rats were then returned to salt-free water and given a sodium-deficient diet. Rats actively seek to defend their internal sodium levels. Consequently, when sodium is depleted, they will avidly drink salt solutions unless ill or nauseous. Twenty-four hours following furosemide administration, rats were given NMU (0, 3, or 10 μg, ICV), or LiCl (0.15 M, 2 ml/kg, i.p.) and given water and 0.5 M NaCl to drink. Fluid consumption was measured 1, 2, and 24 hours post dosing.

[3] = test system: rats; experiment: Food intake and feeding duration in rats after ICV administration; settings: for overnight food intake, change expressed as percentage of control group: n=12 per group
Protocol: Male rats (Charles River Sprague Dawley) weighing 250–350 g were maintained in a temperature and humidity controlled facility with a 12 hour light/dark cycle (4:00 AM lights on). Rats were individually housed in custom designed shoebox cages on wire floors and fed ad libitum with fresh diet provided daily. […] Attached to the food drawers was an infrared feeding monitor that projects a beam across the drawer above the food (MiniMitter, Inc., Sun River, Oreg.). When the animal broke the infrared beam it caused a switch closure. An oscillator then sent off pulses (one pulse/second) and the total number of pulses indicated the length of time that the beam was broken which corresponds to the length of time spent feeding (recorded as feeding duration).
Cannulation and ICV administration were performed essentially as described in Murphy et al 1998 Neuropeptides 32:491–497, which is hereby incorporated by reference. After cannulation, rats were allowed to recover a minimum of seven days before injection with test compounds. All test substances were dissolved in artificial cerebral spinal fluid (aCSF). Rats were injected ICV with 1, 3, or 10 μg of rat NMU-23 (Phoenix Pharmaceuticals). Additional rats were injected ICV with either 0.3 or 0.03 μg of MT-II (Peninsula Laboratories) as a positive control for food intake suppression (melanocortin receptor agonist). […] Another group of ICV-cannulated rats were used in conditioned taste aversion (CTA) and sodium appetite (SA) aversion assays.

Compound: [Cl-].[Li+] [LiCl]
saccharin intake (taste aversion) ([1]; 0.15 M, 2 ml/kg i.p., emetic control): decreased saccharin intake | salt intake (sodium appetite) ([2]; 0.15 M, 2 ml/kg i.p.): significantly decreased salt intake

Compound: MT-II
overnight food intake ([3]; 0.3 μg ICV, positive control): significantly decreased | cumulative feeding duration, change ([3]; ICV, positive control): −71%

saccharin intake relative to total intake (taste aversion) ([1]; 3 μg ICV): did not decrease saccharin intake | saccharin intake relative to total intake (taste aversion) ([1]; 10 μg ICV): did not decrease saccharin intake | total amount of salt intake (sodium appetite) ([2]; 3 μg ICV): did not significantly change | total amount of salt intake (sodium appetite) ([2]; 10 μg ICV): did not significantly change
Compound: YKVNEYQGPVAPSGGFFLFRPRN-NH2 [NMU]
cumulative feeding duration, change ([3]; 3 μg ICV): −33% | overnight food intake, change expressed as percentage of control group ([3]; 3 μg ICV): −38±6% | cumulative feeding duration, change ([3]; 10 μg ICV): −39% | overnight food intake, change expressed as percentage of control group ([3]; 10 μg ICV): −32±3%
